Results: ChEMBL document CHEMBL3769362, “Thermodynamic profiling of inhibitors of Nrf2:Keap1 interactions” (Bioorg Med Chem Lett, 2016)
The source made the active and inactive calls. The calls are words filed in the database; no cut-off is given here.

Legend:
[1] = target: T1, Keap1/Nrf2 (Homo sapiens) (UniProt Q16236+Q14145); experiment: Inhibition of Nrf2:Keap1 interaction (unknown origin) assessed as induction of negative TdeltaS values by MR121 dye-labeled Nrf2-derived peptide based tracer displacement assay; type: protein assay
T1 sequence (Q14145 whole entry, looked up): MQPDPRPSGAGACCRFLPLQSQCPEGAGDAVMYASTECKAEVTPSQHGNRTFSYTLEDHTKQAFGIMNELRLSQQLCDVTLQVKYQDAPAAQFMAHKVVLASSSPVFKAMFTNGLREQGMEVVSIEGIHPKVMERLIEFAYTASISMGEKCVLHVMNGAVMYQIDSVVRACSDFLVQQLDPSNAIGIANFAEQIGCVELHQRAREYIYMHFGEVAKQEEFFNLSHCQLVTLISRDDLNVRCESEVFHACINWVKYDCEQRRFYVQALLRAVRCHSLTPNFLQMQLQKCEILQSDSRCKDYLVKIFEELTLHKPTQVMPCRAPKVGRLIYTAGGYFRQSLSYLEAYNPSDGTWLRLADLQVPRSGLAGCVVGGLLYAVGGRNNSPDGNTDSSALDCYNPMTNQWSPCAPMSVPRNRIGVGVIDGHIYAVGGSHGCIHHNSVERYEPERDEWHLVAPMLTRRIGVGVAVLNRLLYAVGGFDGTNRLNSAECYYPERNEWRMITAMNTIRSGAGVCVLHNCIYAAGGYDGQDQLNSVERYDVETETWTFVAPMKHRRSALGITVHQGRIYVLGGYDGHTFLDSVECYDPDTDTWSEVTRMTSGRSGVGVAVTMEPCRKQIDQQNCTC
T1 sequence (Q16236 whole entry, looked up): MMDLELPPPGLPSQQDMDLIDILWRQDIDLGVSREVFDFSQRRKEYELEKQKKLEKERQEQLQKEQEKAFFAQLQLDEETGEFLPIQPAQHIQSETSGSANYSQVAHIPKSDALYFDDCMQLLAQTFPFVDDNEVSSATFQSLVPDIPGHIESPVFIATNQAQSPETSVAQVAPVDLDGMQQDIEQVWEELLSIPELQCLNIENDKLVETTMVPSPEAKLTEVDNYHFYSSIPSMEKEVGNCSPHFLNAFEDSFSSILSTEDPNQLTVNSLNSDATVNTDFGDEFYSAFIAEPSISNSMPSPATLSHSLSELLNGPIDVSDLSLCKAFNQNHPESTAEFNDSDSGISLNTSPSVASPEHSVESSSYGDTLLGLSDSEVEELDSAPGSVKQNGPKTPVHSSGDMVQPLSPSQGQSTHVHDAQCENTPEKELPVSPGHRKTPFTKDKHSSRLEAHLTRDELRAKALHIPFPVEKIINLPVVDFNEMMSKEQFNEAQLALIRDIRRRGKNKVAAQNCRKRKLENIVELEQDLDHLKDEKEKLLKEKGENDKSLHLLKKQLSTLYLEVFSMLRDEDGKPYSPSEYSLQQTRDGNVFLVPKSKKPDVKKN

[2] = target: T1, Keap1/Nrf2 (Homo sapiens); experiment: Inhibition of Nrf2:Keap1 interaction (unknown origin) assessed as thermodynamic enthalpy changes by MR121 dye-labeled Nrf2-derived peptide based tracer displacement assay; type: protein assay

Activity [1]	deltaG [2] [kcal/mol]	SMILES
Active	-5.93	Cc1ccc(S(=O)(=O)C2CN=C(SCC(=O)Nc3ccccc3C(F)(F)F)NC2=O)c(C)c1 (centres undefined)
Active	-7.84	COc1ccc(S(=O)(=O)Nc2ccc(NS(=O)(=O)c3ccc(OC)cc3)c3ccccc23)cc1
